From patent publication US4563461A, “Selective method for blocking 5HT2 receptors” (Eli Lilly and Company, priority 1983, dated 1986) come the findings set out here.

Each structure is given as a SMILES string. Where two headings read alike, the source gives them in different places.

Test [1] addresses T1, alpha receptors (Rattus norvegicus, UniProt P23944).
T1 construct: their external jugular veins and thoracic aortas dissected free of connective tissue; from tissue; host or cells: thoracic aorta of male Wistar rats
T1 sequence (P23944 1-561): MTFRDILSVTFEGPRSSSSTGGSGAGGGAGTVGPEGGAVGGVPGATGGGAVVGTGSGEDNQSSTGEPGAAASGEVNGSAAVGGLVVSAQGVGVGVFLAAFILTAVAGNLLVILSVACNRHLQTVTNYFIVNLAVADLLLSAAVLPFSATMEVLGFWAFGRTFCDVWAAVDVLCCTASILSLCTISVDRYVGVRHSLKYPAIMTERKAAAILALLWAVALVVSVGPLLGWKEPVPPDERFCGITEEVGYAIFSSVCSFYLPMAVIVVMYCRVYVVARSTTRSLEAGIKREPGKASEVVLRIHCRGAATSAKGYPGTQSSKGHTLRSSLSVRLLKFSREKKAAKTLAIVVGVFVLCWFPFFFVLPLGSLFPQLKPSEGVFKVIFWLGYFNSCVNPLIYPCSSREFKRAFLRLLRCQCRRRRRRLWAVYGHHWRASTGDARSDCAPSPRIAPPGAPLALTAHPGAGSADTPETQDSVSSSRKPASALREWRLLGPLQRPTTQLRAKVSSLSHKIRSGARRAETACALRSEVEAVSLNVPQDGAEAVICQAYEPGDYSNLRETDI
The test is described as follows: Antagonism of norepinephrine contraction in isolated rat aorta (apparent dissociation constant, dose ratio). It counts as cell-based. As to conditions: for Dose-Ratio (norepinephrine ED50 with test compound / control ED50): 10^-5 molar test compound. On the procedure: (§1) The apparent dissociation constants (KB) are a measure of affinity for 5HT2 and alpha receptors and are expressed as the negative logarithm and are determined according to the following protocol.
(§2) Male Wistar rats (150-300 gram weight) were killed and their external jugular veins and thoracic aortas dissected free of connective tissue, cannulated in situ and placed in a modified Krebs' bicarbonate buffer in a suitable tissue bath. Two L-shaped 30-gauge stainless-steel hypodermic needles were inserted in each cannula and the dissected vessels gently pushed onto the needles. One needle was attached with thread to a stationary glass rod and the other to the transducer. [The procedure employed was that described by Hooker, Calkins and Fleisch, Blood Vessels, 14, 1, (1977) for use with circular smooth muscle preparations.]
(§3) The modified Krebs' bicarbonate buffer had the following makeup: (concentrations in millimoles): sodium chloride, 118.2; potassium chloride, 4.6; calcium chloride dihydrate, 1.6; potassium dihydrogenphosphate, 1.2; magnesium sulfate, 1.2; dextrose, 10.0; sodium bicarbonate, 24.8; and water q.s. to 1000 g. The tissue baths were maintained at 37° C. and were aerated with 95% oxygen-5% CO2. An initial optimum resting force of 1 and 4 g. was applied to the jugular vein and aorta, respectively. Isometric contractions were recorded as changes in grams of force on a Beckman Dynograph with Statham UC-3 transducers and microscale accessory attachment. Tissues were allowed to equilibrate 1 to 2 hours before exposure to drugs. Control responses to serotonin in the jugular vein and to norepinephrine in the aorta were obtained. The vessels were then incubated with appropriate concentrations of antagonist for one hour. Responses to serotonin or to norepinephrine were then repeated in the presence of the antagonist. Contraction to serotonin was evaluated in the jugular vein since this tissue produces marked responses to serotonin in the absence of alpha receptors--see Cohen and Wiley, J. Pharm. Exp. Ther., 205, 400 (1978). Alpha receptor antagonist activity was evaluated in the aorta.
(§4) Apparent antagonist dissociation constants were determined for each concentration of antagonist according to the following equation: [formula] wherein [B] is the concentration of the antagonist and the dose ratio is the ED50 of the agonist in the presence of the antagonist divided by the control ED50.
The in vitro rat aorta preparation described above was used.

Test [2] deals with T2, 5HT2 receptors (Rattus norvegicus, UniProt P14842).
T2 construct: their external jugular veins and thoracic aortas dissected free of connective tissue; from tissue; host or cells: external jugular vein of male Wistar rats
T2 sequence (P14842 whole entry): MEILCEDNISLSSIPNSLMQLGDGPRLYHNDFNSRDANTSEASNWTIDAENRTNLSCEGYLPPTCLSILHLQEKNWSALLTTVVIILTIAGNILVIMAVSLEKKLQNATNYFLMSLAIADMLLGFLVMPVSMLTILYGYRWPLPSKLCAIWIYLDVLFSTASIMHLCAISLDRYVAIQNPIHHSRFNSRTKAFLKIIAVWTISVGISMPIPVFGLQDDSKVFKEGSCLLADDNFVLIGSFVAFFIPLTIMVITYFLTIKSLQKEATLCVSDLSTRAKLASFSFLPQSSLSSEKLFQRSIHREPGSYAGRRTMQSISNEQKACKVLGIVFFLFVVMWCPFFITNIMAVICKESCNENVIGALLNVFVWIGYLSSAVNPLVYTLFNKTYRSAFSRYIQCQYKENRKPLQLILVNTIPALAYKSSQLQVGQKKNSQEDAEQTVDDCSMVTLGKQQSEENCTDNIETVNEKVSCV
Type of test: in vivo. As to conditions: pithed SHR, i.p. As for the experimental part:
SHR were anesthesized with halothane, femoral arterial and venous catheters implanted as before and the trachea cannulated. Each rat was pithed by passing a steel rod through the right orbit and down the entire length of the spinal column. The steel rod remained in place for the duration of the experiment. Immediately after pithing, the rats were ventilated with room air via a rodent respirator which eliminated any anesthetic effects. […] The response was recorded and the blood pressure allowed to recover to control levels. […] The test drug was prepared fresh daily and administered by the intraperitoneal route.

Test [3] relates to alpha receptors. Nature of the test: Shift of methoxamine pressor response in pithed SHR. It counts as in vivo, rat. As to conditions: i.p., 10 mg./kg. On the procedure: SHR were anesthesized with halothane, femoral arterial and venous catheters implanted as before and the trachea cannulated. Each rat was pithed by passing a steel rod through the right orbit and down the entire length of the spinal column. The steel rod remained in place for the duration of the experiment. Immediately after pithing, the rats were ventilated with room air via a rodent respirator which eliminated any anesthetic effects. An equilibration period of 15 minutes was observed prior to control measurements and administration of drugs or vehicle i.p. Increasing doses of serotonin or methoxamine were injected i.v. 15 minutes after the equilibration period. The response was recorded and the blood pressure allowed to recover to control levels. […] The test drug was prepared fresh daily and administered by the intraperitoneal route. The compound shifted the serotonin response 22 and 480 fold at 0.1 and 3 mg./kg. dosages whereas at a 10 mg./kg. dose there was no shift in the response to methoxamine, an alpha agonist.

Test [4] is described as follows: Blood pressure in spontaneously hypertensive rats (SHR). Type of test: in vivo, rat. As to conditions: intraperitoneal, 10 mg./kg. As for the experimental part: In spontaneously hypertensive rats (SHR), in which blockade of alpha receptors but not 5HT2 receptors lowers blood pressure, there was no effect upon intraperitoneal administration of 1-isopropyl-6-methyl-8β-(1-methyl-2-hydroxy)propoxycarbonyl-5R-ergoline at a 10 mg./kg. dose.

Test [5] deals with T2, 5HT2 receptors. Nature of the test: Antagonism of serotonin contraction in isolated rat jugular vein (apparent dissociation constant). It counts as cell-based. As to conditions: for Ratio KB alpha / KB 5HT2: rat aorta KB over rat jugular vein KB; for Kb: rat jugular vein, agonist serotonin, antagonist incubated one hour, n in parentheses, read-out: 5HT2 -Log KB ± S.E. (converted). As for the experimental part: as §1, §2, §3, §4

Setting [6] is: rat aorta, agonist norepinephrine, antagonist incubated one hour, n in parentheses, read-out: alpha -Log KB ± S.E. (converted).

Turning to `C=CCn1cc2c3c(cccc31)[C@H]1C[C@@H](C(=O)OCCO)CN(C)[C@@H]1C2` [1-allyl-6-methyl-8β-(2-hydroxy)ethoxycarbonyl-5R-ergoline], in test [1] (rat aorta), the “Dose-Ratio (norepinephrine ED50 with test compound / control ED50)” value stood at 2.4.

Take `CC(O)C(C)OC(=O)[C@@H]1C[C@@H]2c3cccc4c3c(cn4C(C)C)C[C@H]2N(C)C1` (stereo partly drawn) [1-isopropyl-6-methyl-8β-(1-methyl-2-hydroxy)propoxycarbonyl-5R-ergoline]: the “Shift of the serotonin response” value amounted to 22 fold in test [2] (0.1 mg./kg.) and 480 fold in test [2] (3 mg./kg.). Further, the “Shift in the response to methoxamine” value in test [3] is recorded as “no shift”. In addition, the “Effect on blood pressure” value in test [4] is given as “no effect”. The “Ratio KB alpha / KB 5HT2” value in test [5] is recorded as 300,000. For the same compound, the Kb in test [5] is 0.0537 nM; in test [1], 13800 nM. The “Dose-Ratio (norepinephrine ED50 with test compound / control ED50)” value in test [1] (rat aorta) is on record as 3.6.

Regarding `CC(O)COC(=O)[C@@H]1C[C@@H]2c3cccc4c3c(cn4C(C)C)C[C@H]2N(C)C1` (stereo partly drawn) [1-isopropyl-6-methyl-8β-(2-hydroxy)propoxycarbonyl-5R-ergoline], in test [1] (rat aorta), the “Dose-Ratio (norepinephrine ED50 with test compound / control ED50)” value stood at 1.0.

In the case of `CNCC12CCC(c3ccccc31)c1ccccc12` [Benzoctamine], in test [5], the “Ratio KB alpha / KB 5HT2” value came out at 16 and the Kb was 15.8 nM. For the same compound, the Kb in test [1] is 251 nM.

In the case of `O=C(c1ccc(F)cc1)C1CCN(CCn2c(=O)[nH]c3ccccc3c2=O)CC1` [Ketanserin, reference compound], the Kb in test [1] (setting [6]) is 12.6 nM.

Take `Cc1cc(CCN2CCN(c3cccc(Cl)c3)CC2)n[nH]1` [Mepiprazole]: in test [5], the “Ratio KB alpha / KB 5HT2” value amounted to 0.4 and the Kb was 12.6 nM. The Kb in test [1] (setting [6]) was 5.01 nM.

With `O=c1n(CCCN2CCN(c3cccc(Cl)c3)CC2)nc2ccccn12` [Trazodone, reference compound], the Kb in test [1] is 158 nM.
